Key:
mCRTH2 = target: T1, mCRTH2 (Mus musculus, UniProt Q9Z2J6); assay: Inositol phosphate accumulation assay, mCRTH2-HEK cells (Schild analysis vs PGD2); type: cell-based; settings: PGD2 concentration-response, InsP
T1 construct: expressed in transfected cells
T1 sequence (Q9Z2J6 1-382): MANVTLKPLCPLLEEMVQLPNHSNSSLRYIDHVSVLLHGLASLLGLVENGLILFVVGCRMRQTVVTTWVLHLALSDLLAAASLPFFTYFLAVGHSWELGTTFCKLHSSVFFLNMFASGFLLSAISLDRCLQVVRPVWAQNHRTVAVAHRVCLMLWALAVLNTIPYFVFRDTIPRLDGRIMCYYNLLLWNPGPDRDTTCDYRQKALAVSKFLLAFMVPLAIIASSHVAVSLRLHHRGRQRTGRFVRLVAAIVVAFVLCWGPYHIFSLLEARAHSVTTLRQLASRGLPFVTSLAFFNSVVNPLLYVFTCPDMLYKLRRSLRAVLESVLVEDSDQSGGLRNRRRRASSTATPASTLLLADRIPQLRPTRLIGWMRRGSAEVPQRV
Description: (§1) The coding sequence of mCRTH2 (genbank accession no. AF054507) was amplified by PCR from mouse hippocampus cDNA and inserted into the pcDNA3.1(+) expression vector (invitrogen). A HEK293 cell line, stably expressing mCRTH2 (hereafter referred to as mCRTH2-HEK cells) was generated under G418 (Gibco #11811) selection and used as described below in whole cell binding and functional inositol phosphate accumulation assays. The coding sequence of mTP (genbank accession no. D10849) was amplified by PCR from mouse spleen cDNA and inserted into pcDNA3.1(+). HEK293 cells were transiently transfected with mTP as described and assayed after 48 hr as outlined below.
mCRTH2-HEK or HEK cells transiently transfected with mTP were seeded at a density of 30.000 cells/well in poly-D-lysine coated 96-well tissue culture plates and labeled by overnight incubation in medium containing 5 μCi myo- [2-^3H]-inositol (TRK911, Amersham Biosciences). After washing, cells were stimulated with the respective ligands in the presence of 5 mM LiCl (HBSS, GIBCO cat. 14025–050, 45 min, 37°C) and the inositol phosphate fraction was quantified using a scintillation proximity assay (SPA) as described previously. To facilitate inositol phosphate generation by the Gi-selective CRTH2 receptor, mCRTH2-HEK cells were transiently transfected with a promiscuous Gα protein [29].
was performed using the Prism 3.0 software (GraphPad Software, San Diego) as described previously with the following exceptions: Binding data from competition binding assays were normalized to percent of specific binding of [^3H]PGD2 or [^3H]SQ29548 and the Ki was then determined using the Cheng-Prusoff equation Ki = IC50/(1+L/Kd), where L is the concentration of radioactive ligand and Kd is its dissociation constant. For Schild analysis, global fitting using the Gaddum/Schild competitive interaction model was applied after the functional concentration-response curves for the agonists PGD2 or U46619 in the absence or presence of various antagonist concentrations were normalized to percent of the maximal response obtained by agonist alone.

mTP = target: T2, mTP (Mus musculus, UniProt P30987); assay: mTP whole cell competition binding ([3H]SQ29548); settings: displacement of [3H]SQ29548, HEK cells transfected with mTP
T2 construct: expressed in transfected cells; host or cells: HEK293 (transient, pcDNA3.1(+))
T2 sequence (P30987 1-341): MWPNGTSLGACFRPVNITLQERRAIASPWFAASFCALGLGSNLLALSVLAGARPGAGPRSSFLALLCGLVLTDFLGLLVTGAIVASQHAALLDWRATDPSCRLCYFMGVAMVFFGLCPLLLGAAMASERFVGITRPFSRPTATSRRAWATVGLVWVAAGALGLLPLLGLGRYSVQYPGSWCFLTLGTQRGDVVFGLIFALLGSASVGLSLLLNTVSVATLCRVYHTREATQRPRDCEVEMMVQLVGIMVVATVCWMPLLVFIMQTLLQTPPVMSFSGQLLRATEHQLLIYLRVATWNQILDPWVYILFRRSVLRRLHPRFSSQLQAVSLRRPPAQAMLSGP
Description: as §1
Binding assays were performed essentially as described previously. […] Total and nonspecific binding were determined in the absence and presence of 10 μM PGD2 for mCRTH2 and 10 μM U46619 for mTXA2 receptors.
was performed using the Prism 3.0 software (GraphPad Software, San Diego) as described previously with the following exceptions: Binding data from competition binding assays were normalized to percent of specific binding of [^3H]PGD2 or [^3H]SQ29548 and the Ki was then determined using the Cheng-Prusoff equation Ki = IC50/(1+L/Kd), where L is the concentration of radioactive ligand and Kd is its dissociation constant. […]

[1] = system: OVA-challenged BALB/c mice; assay: Mouse model of allergic asthma (OVA), lung tissue eosinophils and mucus cells histology; type: in vivo; settings: 5 mg/kg orally twice daily days 14 and 15, OVA-challenged mice, 24 hr after last challenge; p < 0.05 vs vehicle
Description: Female BALB/c mice about 6 weeks of age (MoB A/S; Ry, Denmark) were kept in well-controlled animal housing facilities and fed ad libitum. The study was approved by the Regional Ethics Committee in Malmoe-Lund, Sweden. All groups of mice (n = 10 in each group) were immunized by intraperitoneal (i.p) injections of ovalbumin (OVA, 10 μg per injection; grade V, Sigma, St Louis, Mo) absorbed to alum adjuvant (Al(OH)3; Sigma) at day 0 as described previously. […] Control animals received saline challenge. Animals were sacrificed 24 hr after the last allergen challenge by pentobarbital i.p followed by bronchoalveolar lavage (BAL) and lung tissue sampling. In preliminary studies it was ascertained that daily allergen challenges for only a few days sufficed to produce a significant airway tissue eosinophilia as well as goblet cell hyperplasia. On days 14 and 15 mice were treated twice daily with TM30089 and ramatroban (BAY3405), 5 mg/kg orally. […] Drugs were administered 30 minutes before and 4 hr after each challenge. The dose of ramatroban was selected in accord with previous reports. Furthermore, ramatroban and TM30089 differ chemically merely by the move of one carbon atom from the carboxyl side chain in ramatroban to the sulfonamide nitrogen in TM30089 - thus they have the same molecular weight and other important structural features in common - so it is highly reasonable to assume they will have very similar PK properties. […] Eosinophils were detected by histochemical visualization of cyanide-resistant eosinophil peroxidase (EPO) activity. In brief, 5 μm cryo sections were incubated for 8 min at room temperature in PBS buffer (pH 7.4) supplemented with 3.3-diaminobenzidine tetrahydrochloride (60 mg/100 ml; Sigma), 30% H2O2 (0.3 ml/100 ml), and NaCN (120 mg/100 ml). Slides were then rinsed in tap water and mounted in […] medium (Merck, Darmstadt, Germany). […] Although the focus in this study was on tissue pathology BAL was also carried out (see below). Histology analyses were performed and quantified in a blinded manner. To compare histological data, the non-parametric Kruskal-Wallis test and followed by Connover's test was applied using Analyze ItTM (Analyse-it software Ltd., Leeds, UK). Data are expressed as mean ± SEM. A value of p < 0.05 was considered statistically significant.

CN(C1CCc2c(c3ccccc3n2CC(=O)O)C1)S(=O)(=O)c1ccc(F)cc1 (stereo not shown) [TM30089]
Schild slope mCRTH2 (mCRTH2): 1.45 ± 0.08 | pA2 mCRTH2 (mCRTH2): 9.15 ± 0.11 | pKi mTP (mTP): 5.30 ± 0.03 | allergen challenge-induced mucus cell hyperplasia [1]: significantly diminished | allergen challenge-induced peribronchial lung tissue eosinophilia [1]: significantly diminished

O=C(O)CCn1c2c(c3ccccc31)C[C@H](NS(=O)(=O)c1ccc(F)cc1)CC2 [ramatroban, reference compound]
Schild slope mCRTH2 (mCRTH2): 0.94 ± 0.05 | Kb (mCRTH2; read-out: pA2 mCRTH2 (converted)): 8.32 nM | Ki (mTP; read-out: pKi mTP (converted)): 1.2 nM | allergen challenge-induced mucus cell hyperplasia [1]: significantly diminished | allergen challenge-induced peribronchial lung tissue eosinophilia [1]: significantly diminished

— article PMC1810525, “Antagonism of the prostaglandin D2 receptor CRTH2 attenuates asthma pathology in mouse eosinophilic airway inflammation” (Respiratory Research, 2007)
